# Laboratory results from PMC5218480 (PLoS ONE, 2017).
# Tested on: MV-4-11 cells
# Test: Gene expression microarray analysis (Affymetrix PrimeView) and GSEA
# Type: cell-based, human
# Parameters: RFU PODN (11730768_x_at) / Fold change /veh PODN (11730768_x_at) / RFU LINC00158 (11744669_a_at) / Fold change /veh LINC00158 (11744669_a_at) / RFU DUSP10 (11751237_a_at) / Fold change /veh DUSP10 (11751237_a_at) / RFU ID3 (11757404_x_at) / Fold change /veh ID3 (11757404_x_at) / RFU PLEKHG5 (11737974_s_at) / Fold change /veh PLEKHG5 (11737974_s_at) / RFU LRRC4B (11730491_at) / Fold change /veh LRRC4B (11730491_at) / RFU GIMAP4 (11747438_a_at) / Fold change /veh GIMAP4 (11747438_a_at) / RFU KRT8 (11758183_x_at) / Fold change /veh KRT8 (11758183_x_at) / RFU CNN1 (11734310_a_at) / Fold change /veh CNN1 (11734310_a_at) / RFU VPS37D (11726825_at) / Fold change /veh VPS37D (11726825_at) / RFU C10orf10 (11716522_x_at) / Fold change /veh C10orf10 (11716522_x_at) / RFU KIR2DL2 /// KIR2DL4 /// KIR2DL5A /// KIR2DL5B /// KIR2DS1 /// KIR2DS2 /// KIR2DS3 /// KIR2DS4 /// KIR3DL3 /// KIR3DL3 /// KIR3DS1 (11738374_at) / Fold change /veh KIR2DL2 /// KIR2DL4 /// KIR2DL5A /// KIR2DL5B /// KIR2DS1 /// KIR2DS2 /// KIR2DS3 /// KIR2DS4 /// KIR3DL3 /// KIR3DL3 /// KIR3DS1 (11738374_at) / RFU C1QL1 (11718748_at) / Fold change /veh C1QL1 (11718748_at) / RFU TMPRSS4 (11747572_a_at) / Fold change /veh TMPRSS4 (11747572_a_at) / RFU HAMP (11756126_x_at) / Fold change /veh HAMP (11756126_x_at) / RFU RNFT2 (11725882_a_at) / Fold change /veh RNFT2 (11725882_a_at) / RFU NR4A2 (11747474_a_at) / Fold change /veh NR4A2 (11747474_a_at) / RFU ABCC12 (11746883_a_at) / Fold change /veh ABCC12 (11746883_a_at) / RFU TMEM136 (11760407_x_at) / Fold change /veh TMEM136 (11760407_x_at) / RFU CLDN22 /// WWC2 (11732394_at) / Fold change /veh CLDN22 /// WWC2 (11732394_at) / RFU HLA-DPB1 (11760878_x_at) / Fold change /veh HLA-DPB1 (11760878_x_at) / RFU SPINT1 (11716480_a_at) / Fold change /veh SPINT1 (11716480_a_at) / RFU GAP43 (11754022_s_at) / Fold change /veh GAP43 (11754022_s_at) / RFU A4GNT (11735810_at) / Fold change /veh A4GNT (11735810_at) / RFU PRB3 (11715151_x_at) / Fold change /veh PRB3 (11715151_x_at) / RFU TUBB4B (11761932_at) / Fold change /veh TUBB4B (11761932_at) / RFU CAPN14 (11732068_a_at) / Fold change /veh CAPN14 (11732068_a_at) / RFU TMCC2 (11721928_a_at) / Fold change /veh TMCC2 (11721928_a_at) / RFU IRGQ (11745062_a_at) / Fold change /veh IRGQ (11745062_a_at) / RFU FAM174B (11720279_a_at) / Fold change /veh FAM174B (11720279_a_at) / RFU TMPRSS4 (11748680_a_at) / Fold change /veh TMPRSS4 (11748680_a_at) / RFU FAM212B (11763350_a_at) / Fold change /veh FAM212B (11763350_a_at) / RFU PLEKHG5 (11743358_a_at) / Fold change /veh PLEKHG5 (11743358_a_at) / RFU ZSCAN30 (11745921_a_at) / Fold change /veh ZSCAN30 (11745921_a_at) / RFU CMKLR1 (11741424_a_at) / Fold change /veh CMKLR1 (11741424_a_at) / RFU LOC101060620 /// MAPK8IP1 (11723275_at) / Fold change /veh LOC101060620 /// MAPK8IP1 (11723275_at) / RFU SPTSSB (11747773_x_at) / Fold change /veh SPTSSB (11747773_x_at) / RFU PRSS12 (11739890_at) / Fold change /veh PRSS12 (11739890_at) / RFU BIN1 (11741810_x_at) / Fold change /veh BIN1 (11741810_x_at) / RFU WNT11 (11732464_a_at) / Fold change /veh WNT11 (11732464_a_at) / RFU C10orf10 (11716521_a_at) / Fold change /veh C10orf10 (11716521_a_at) / RFU C5orf56 (11738089_at) / Fold change /veh C5orf56 (11738089_at) / RFU CYB561 (11721691_x_at) / Fold change /veh CYB561 (11721691_x_at) / RFU ANKRD19P (11752326_a_at) / Fold change /veh ANKRD19P (11752326_a_at) / RFU OR2T12 /// OR2T33 /// OR2T8 (11738714_s_at) / Fold change /veh OR2T12 /// OR2T33 /// OR2T8 (11738714_s_at) / RFU VCAN (11748164_a_at) / Fold change /veh VCAN (11748164_a_at) / RFU JSRP1 (11732532_at) / Fold change /veh JSRP1 (11732532_at) / RFU KRTAP10-11 (11738290_x_at) / Fold change /veh KRTAP10-11 (11738290_x_at) / RFU MYO3A (11730013_a_at) / Fold change /veh MYO3A (11730013_a_at) / RFU EBF3 (11725865_a_at) / Fold change /veh EBF3 (11725865_a_at) / RFU CAMK2N1 (11719241_x_at) / Fold change /veh CAMK2N1 (11719241_x_at) / RFU C5orf56 (11738088_a_at) / Fold change /veh C5orf56 (11738088_a_at) / RFU OLFML3 (11715873_a_at) / Fold change /veh OLFML3 (11715873_a_at) / RFU LOC100653217 /// NTM (11731650_a_at) / Fold change /veh LOC100653217 /// NTM (11731650_a_at) / RFU MAPK11 (11762145_a_at) / Fold change /veh MAPK11 (11762145_a_at) / RFU FIZ1 (11724087_x_at) / Fold change /veh FIZ1 (11724087_x_at) / RFU OASL (11726364_x_at) / Fold change /veh OASL (11726364_x_at) / RFU SOX15 (11748057_x_at) / Fold change /veh SOX15 (11748057_x_at) / RFU CD79A (11719716_a_at) / Fold change /veh CD79A (11719716_a_at) / RFU HIST1H1D (11736915_at) / Fold change /veh HIST1H1D (11736915_at) / RFU CASKIN2 (11723855_a_at) / Fold change /veh CASKIN2 (11723855_a_at) / RFU LOC730098 (11760151_x_at) / Fold change /veh LOC730098 (11760151_x_at) / RFU OR4N2 (11742367_at) / Fold change /veh OR4N2 (11742367_at) / RFU PRRT2 (11749266_a_at) / Fold change /veh PRRT2 (11749266_a_at) / RFU SNX32 (11753110_a_at) / Fold change /veh SNX32 (11753110_a_at) / RFU CDHR5 (11726645_a_at) / Fold change /veh CDHR5 (11726645_a_at) / RFU RCAN1 (11760418_a_at) / Fold change /veh RCAN1 (11760418_a_at) / RFU FAM167A (11723789_a_at) / Fold change /veh FAM167A (11723789_a_at) / RFU FAM26E (11764081_at) / Fold change /veh FAM26E (11764081_at) / RFU ISYNA1 (11749810_s_at) / Fold change /veh ISYNA1 (11749810_s_at) / RFU ACY1 (11761880_at) / Fold change /veh ACY1 (11761880_at) / RFU 11764098_at / Fold change /veh 11764098_at / RFU SAMD14 (11745864_x_at) / Fold change /veh SAMD14 (11745864_x_at) / RFU NPB (11741838_a_at) / Fold change /veh NPB (11741838_a_at) / RFU TMPRSS6 (11731388_a_at) / Fold change /veh TMPRSS6 (11731388_a_at) / RFU KRTAP10-2 (11738614_at) / Fold change /veh KRTAP10-2 (11738614_at) / RFU ARHGAP8 /// PRR5-ARHGAP8 (11727945_x_at) / Fold change /veh ARHGAP8 /// PRR5-ARHGAP8 (11727945_x_at) / RFU KRTAP5-7 /// NADSYN1 (11734609_at) / Fold change /veh KRTAP5-7 /// NADSYN1 (11734609_at) / RFU RASL12 (11751679_a_at) / Fold change /veh RASL12 (11751679_a_at) / RFU CDKN2B (11736163_a_at) / Fold change /veh CDKN2B (11736163_a_at) / RFU PRF1 (11729649_at) / Fold change /veh PRF1 (11729649_at) / RFU, ZNF638 /// ZNF638-IT1 / Fold change vs veh, ZNF638 /// ZNF638-IT1 / RFU, PANK3 / Fold change vs veh, PANK3 / RFU, SH3YL1 / Fold change vs veh, SH3YL1 / RFU, ZEB2 / Fold change vs veh, ZEB2 / RFU, NRIP1 / Fold change vs veh, NRIP1 / RFU, PTTG1IP / Fold change vs veh, PTTG1IP / RFU, CAPN2 / Fold change vs veh, CAPN2 / RFU, MED14 / Fold change vs veh, MED14 / RFU, SNORA58 / Fold change vs veh, SNORA58 / RFU, C1orf63 / Fold change vs veh, C1orf63 / RFU, LRRFIP1 / Fold change vs veh, LRRFIP1 / RFU, NDUFAF7 / Fold change vs veh, NDUFAF7 / RFU, SLC12A2 / Fold change vs veh, SLC12A2 / RFU, IBTK / Fold change vs veh, IBTK / RFU, ESF1 / Fold change vs veh, ESF1 / Fold change vs veh, TMEM50B / RFU, TAOK1 / Fold change vs veh, TAOK1 / RFU, ACBD3 / Fold change vs veh, ACBD3 / RFU, TMA16 / Fold change vs veh, TMA16 / RFU, RWDD3 / Fold change vs veh, RWDD3 / RFU, BCAT1 / Fold change vs veh, BCAT1 / RFU, EDEM3 / Fold change vs veh, EDEM3 / RFU, TMEM33 / Fold change vs veh, TMEM33 / RFU, WDR75 / Fold change vs veh, WDR75 / RFU, AHCTF1 / Fold change vs veh, AHCTF1 / RFU, TFRC / Fold change vs veh, TFRC / RFU, ZDHHC17 / Fold change vs veh, ZDHHC17 / RFU, NOM1 / Fold change vs veh, NOM1 / RFU, ARL8B / Fold change vs veh, ARL8B / RFU, ZBTB11 / Fold change vs veh, ZBTB11 / RFU, TAMM41 / Fold change vs veh, TAMM41 / RFU, KIAA1704 /// LOC100996395 / Fold change vs veh, KIAA1704 /// LOC100996395 / RFU, ING1 / Fold change vs veh, ING1 / RFU, TRMT61B / Fold change vs veh, TRMT61B / RFU, FUBP3 / Fold change vs veh, FUBP3 / RFU, TP53 / Fold change vs veh, TP53 / RFU, TNKS2 / Fold change vs veh, TNKS2 / RFU, ZFP14 / Fold change vs veh, ZFP14 / RFU, ACTR2 / Fold change vs veh, ACTR2 / RFU, PPP3R1 / Fold change vs veh, PPP3R1 / RFU, PIK3R1 / Fold change vs veh, PIK3R1 / RFU, HNRNPA1 / Fold change vs veh, HNRNPA1 / RFU, RNF170 / Fold change vs veh, RNF170 / RFU, ZNF28 / Fold change vs veh, ZNF28 / RFU, RNGTT / Fold change vs veh, RNGTT / RFU, OGT / Fold change vs veh, OGT / RFU, BRD1 / Fold change vs veh, BRD1 / RFU, MARS / Fold change vs veh, MARS / RFU, ZNF655 / Fold change vs veh, ZNF655 / RFU, FAHD1 / Fold change vs veh, FAHD1 / RFU, BDP1 / Fold change vs veh, BDP1 / RFU, LRRCC1 / Fold change vs veh, LRRCC1 / RFU, ARID1A / Fold change vs veh, ARID1A / RFU, ZNF146 / Fold change vs veh, ZNF146 / RFU, ZNF330 / Fold change vs veh, ZNF330 / RFU, GPN3 / Fold change vs veh, GPN3 / RFU, C9orf123 / Fold change vs veh, C9orf123 / RFU, N4BP2L2 / Fold change vs veh, N4BP2L2 / RFU, ARFIP1 / Fold change vs veh, ARFIP1 / RFU, FAM179B / Fold change vs veh, FAM179B / RFU, BCL10 / Fold change vs veh, BCL10 / RFU, UHRF1BP1L / Fold change vs veh, UHRF1BP1L / RFU, BET1 / Fold change vs veh, BET1 / RFU, CNOT2 / Fold change vs veh, CNOT2 / RFU, ZNF268 / Fold change vs veh, ZNF268 / Fold change vs veh, ZNF507 / RFU, DGCR2 / Fold change vs veh, DGCR2 / RFU, WDSUB1 / Fold change vs veh, WDSUB1 / Fold change vs veh, HSP90B1 /// MIR3652 / RFU, ADSS / Fold change vs veh, ADSS / RFU, GK / Fold change vs veh, GK / RFU, ZNF148 / Fold change vs veh, ZNF148 / RFU, TAF9 / Fold change vs veh, TAF9 / RFU, SLC1A5 / Fold change vs veh, SLC1A5 / RFU, SLMO2 / Fold change vs veh, SLMO2 / RFU, ABCC4 / Fold change vs veh, ABCC4 / RFU, LOC101060439 /// RAP1B / Fold change vs veh, LOC101060439 /// RAP1B / RFU, RFX7 / Fold change vs veh, RFX7 / RFU, GTPBP10 / Fold change vs veh, GTPBP10 / RFU, CNEP1R1 / Fold change vs veh, CNEP1R1 / RFU, BIVM-ERCC5 /// ERCC5 / Fold change vs veh, BIVM-ERCC5 /// ERCC5 / RFU, ILF3 / Fold change vs veh, ILF3 / RFU 11762660_at / Fold change /veh 11762660_at / RFU VCAN (11757783_s_at) / Fold change /veh VCAN (11757783_s_at) / RFU DDX43 (11728927_at) / Fold change /veh DDX43 (11728927_at) / RFU KRT8 (11758188_x_at) / Fold change /veh KRT8 (11758188_x_at) / RFU NKD1 (11759106_at) / Fold change /veh NKD1 (11759106_at) / RFU SRD5A1 (11742802_a_at) / Fold change /veh SRD5A1 (11742802_a_at) / RFU TPSAB1 /// TPSB2 (11721975_s_at) / Fold change /veh TPSAB1 /// TPSB2 (11721975_s_at) / RFU GSTM3 (11746129_a_at) / Fold change /veh GSTM3 (11746129_a_at) / RFU IL23R (11737362_x_at) / Fold change /veh IL23R (11737362_x_at) / RFU TMEM51 (11727254_a_at) / Fold change /veh TMEM51 (11727254_a_at) / RFU PIWIL2 (11732686_x_at) / Fold change /veh PIWIL2 (11732686_x_at) / RFU ORM1 (11744905_x_at) / Fold change /veh ORM1 (11744905_x_at) / RFU CCDC152 (11743942_at) / Fold change /veh CCDC152 (11743942_at) / RFU ECM1 (11717891_a_at) / Fold change /veh ECM1 (11717891_a_at) / RFU IL23R (11748794_a_at) / Fold change /veh IL23R (11748794_a_at) / RFU TNFAIP8L3 (11732012_x_at) / Fold change /veh TNFAIP8L3 (11732012_x_at) / RFU MBOAT4 (11741988_at) / Fold change /veh MBOAT4 (11741988_at) / RFU 11764193_at / Fold change /veh 11764193_at / RFU TMEM53 (11763286_at) / Fold change /veh TMEM53 (11763286_at) / RFU MAGEB2 (11727129_at) / Fold change /veh MAGEB2 (11727129_at) / RFU TMEM200A (11744735_a_at) / Fold change /veh TMEM200A (11744735_a_at) / RFU CCDC152 (11751479_a_at) / Fold change /veh CCDC152 (11751479_a_at) / RFU FAM211A (11726209_a_at) / Fold change /veh FAM211A (11726209_a_at) / RFU RGS16 (11746705_a_at) / Fold change /veh RGS16 (11746705_a_at) / RFU VCAN (11755009_s_at) / Fold change /veh VCAN (11755009_s_at) / RFU RHOB (11743442_s_at) / Fold change /veh RHOB (11743442_s_at) / RFU RGS16 (11720943_a_at) / Fold change /veh RGS16 (11720943_a_at) / RFU RGS16 (11720944_at) / Fold change /veh RGS16 (11720944_at) / RFU, VPS4B / Fold change vs veh, VPS4B / RFU, CREB1 / Fold change vs veh, CREB1 / RFU, DNAJC13 / Fold change vs veh, DNAJC13 / RFU, GNAQ / Fold change vs veh, GNAQ / RFU, CDK5R1 / Fold change vs veh, CDK5R1 / RFU, ZRANB3 / Fold change vs veh, ZRANB3 / RFU, CUL4A / Fold change vs veh, CUL4A / RFU, CCNY / Fold change vs veh, CCNY / RFU, UFL1 / Fold change vs veh, UFL1 / RFU, COG3 / Fold change vs veh, COG3 / RFU, DIAPH2 / Fold change vs veh, DIAPH2 / RFU, SKA2 / Fold change vs veh, SKA2 / RFU, AFF3 / Fold change vs veh, AFF3 / RFU, LMF1 / Fold change vs veh, LMF1 / RFU, IPO11 / Fold change vs veh, IPO11 / RFU, DFFB / Fold change vs veh, DFFB / RFU, FOXP1 / Fold change vs veh, FOXP1 / RFU, CARD8 / Fold change vs veh, CARD8 / RFU, STRN3 / Fold change vs veh, STRN3 / RFU, ADK / Fold change vs veh, ADK / RFU, RASSF2 / Fold change vs veh, RASSF2 / RFU, WIPF1 / Fold change vs veh, WIPF1 / RFU, LARP1B / Fold change vs veh, LARP1B / RFU, RASA1 / Fold change vs veh, RASA1 / RFU, RB1 / Fold change vs veh, RB1 / RFU, PPFIA1 / Fold change vs veh, PPFIA1 / RFU, MAT2A / Fold change vs veh, MAT2A / RFU, CCT5 / Fold change vs veh, CCT5 / RFU, WDR92 / Fold change vs veh, WDR92 / RFU, CUX1 / Fold change vs veh, CUX1 / RFU, TTC7A / Fold change vs veh, TTC7A / RFU, TMEM135 / Fold change vs veh, TMEM135 / RFU, DEPTOR / Fold change vs veh, DEPTOR / RFU, CPM / Fold change vs veh, CPM / RFU, DNAJB6 / Fold change vs veh, DNAJB6 / RFU, CACNA2D3 / Fold change vs veh, CACNA2D3 / RFU, DTX4 / Fold change vs veh, DTX4 / RFU, TFCP2 / Fold change vs veh, TFCP2 / RFU, GMCL1 /// GMCL1P1 / Fold change vs veh, GMCL1 /// GMCL1P1 / RFU, AEBP2 / Fold change vs veh, AEBP2 / RFU, SNHG1 /// SNORD22 /// SNORD25 /// SNORD26 /// SNORD27 /// SNORD28 /// SNORD29 /// SNORD31 / Fold change vs veh, SNHG1 /// SNORD22 /// SNORD25 /// SNORD26 /// SNORD27 /// SNORD28 /// SNORD29 /// SNORD31 / Fold change (Aza/veh), C12orf56 (ProbeSet 11735607_a_at) / Fold change (ACY-1035/veh), C12orf56 (ProbeSet 11735607_a_at) / Fold change (Aza/veh), FGFR1OP (ProbeSet 11751329_s_at) / Fold change (ACY-1035/veh), FGFR1OP (ProbeSet 11751329_s_at) / Fold change (Aza/veh), VPS36 (ProbeSet 11739960_a_at) / Fold change (ACY-1035/veh), VPS36 (ProbeSet 11739960_a_at) / RFU SYPL1 (11715823_x_at) / Fold change /veh SYPL1 (11715823_x_at) / RFU IGFBP7 (11715501_s_at) / Fold change /veh IGFBP7 (11715501_s_at) / RFU REEP3 (11722064_at) / Fold change /veh REEP3 (11722064_at) / RFU IGLL1 (11728026_x_at) / Fold change /veh IGLL1 (11728026_x_at): dose or concentration left out as unconfirmed
# Conditions: MV-4-11 cells, 48 hours
structure (smiles),measurement,value
Nc1ncn([C@@H]2O[C@H](CO)[C@@H](O)[C@H]2O)c(=O)n1 [azacitidine],RFU SYPL1 (11715823_x_at),860.69 RFU
